{"source": "patent US20090304720A1", "about": "“Active Agent-Loaded Nanoparticles Based On Hydrophilic Proteins” (LTS Lohmann Therapie-Systeme AG, priority 2006, published 2009)", "system": "mice", "experiment": "tail-flick test, analgesia (nociceptive response) after intravenous injection", "type": "in vivo, mouse", "conditions": "7.0 mg/kg loperamide, cut-off ten seconds = 100% MPE", "procedure": "The preparations were applied intravenously to mice, at a dosage of 7.0 mg/kg loperamide. Based on an average body weight of a mouse of 20 g, the animals received an application amount of 200 μl of the above-mentioned preparation.\nWith the aid of this system, the analgesic effects shown in FIG. 1 were achieved after intravenous injection using the above-mentioned active agent loperamide. Analgesia (Nociceptive Response) was detected by the tail-flick test, wherein a hot beam of light is projected onto the tail of the mouse and the time that passes until the mouse flicks away its tail is measured. After ten seconds (=100% MPE) the experiment is discontinued so as not to cause injury to the mouse. Negative MPE values occur in those cases where following administration of the preparation, the mouse flicks away its tail earlier than before the treatment.\nAs a comparison, a loperamide solution 0.7 mg/ml in 2.6%-vol. ethanol was used.", "data": [{"smiles": "CN(C)C(=O)C(CCN1CCC(O)(c2ccc(Cl)cc2)CC1)(c1ccccc1)c1ccccc1", "note": "[loperamide]", "values": [{"measurement": "analgesic effect (maximal possible effect, MPE)", "result": "no analgesic effect"}]}]}
